According to ChEMBL document CHEMBL3745699, “Structural insights into mechanisms for inhibiting amyloid β42 aggregation by non-catechol-type flavonoids” (Bioorg Med Chem, 2016):
The source made the active and inactive calls. The calls are words filed in the database; no cut-off is given here.

Experiments:
[1] = molecular target: Amyloid-beta precursor protein (Homo sapiens) (UniProt P05067); experiment: Inhibition of nucleation phase of HFIP-treated 15N-labelled wild type Amyloid beta (1 to 42) (unknown origin) assessed as time required for nucleation at 50 uM by Thioflavin-T fluorescence assay in presence of fibril seed
[2] = Drug level treated with kaempferol after 4 hrs by LC/Q Tof-MS/MS analysis; type: physicochemical
[3] = molecular target: Amyloid-beta precursor protein (Homo sapiens) (UniProt P05067); experiment: Inhibition of wild type amyloid beta (1 to 42) (unknown origin) aggregation at 50 uM by Thioflavin-T fluorescence assay
[4] = molecular target: Amyloid-beta precursor protein (Homo sapiens) (UniProt P05067); experiment: Inhibition of wild type Amyloid beta (1 to 42) (unknown origin) aggregation at 50 to 100 uM under anaerobic condition after 5 days by Thioflavin-T fluorescence assay
[5] = Stability of the compound assessed as compound remaining after 48 hrs by HPLC analysis; type: physicochemical; conditions: read-out: Stability
[6] = Drug degradation assessed as autoxidation at 50 uM under argon atmosphere at 37 degC after 2 to 48 hrs by UV-visible spectrophotometric analysis in presence of wild type Amyloid beta (1 to 42) (unknown origin); type: physicochemical
[7] = molecular target: Amyloid-beta precursor protein (Homo sapiens) (UniProt P05067); experiment: Inhibition of Amyloid beta (1 to 42) 13,14 A2 mutant (unknown origin) aggregation at 50 uM by Thioflavin-T fluorescence assay
[8] = molecular target: Amyloid-beta precursor protein (Homo sapiens) (UniProt P05067); experiment: Inhibition of wild type Amyloid beta (1 to 42) (unknown origin) aggregation at 50 uM under ambient condition by Thioflavin-T fluorescence assay
[9] = Drug degradation assessed as autoxidation at 500 uM at 4 degC after 4 hrs by UV-visible spectrophotometric analysis in presence of wild type Amyloid beta (1 to 42) (unknown origin); type: physicochemical
[10] = molecular target: Amyloid-beta precursor protein (Homo sapiens) (UniProt P05067); experiment: Inhibition of elongation phase of HFIP-treated 15N-labelled wild type Amyloid beta (1 to 42) (unknown origin) at 50 uM by Thioflavin-T fluorescence assay in presence of fibril seed
[11] = molecular target: Amyloid-beta precursor protein (Homo sapiens) (UniProt P05067); conditions: 50 uM
Description: Inhibition of wild type Amyloid beta (1 to 42) (unknown origin) aggregation at 50 uM after 48 hrs by TEM analysis

[12] = Drug degradation after 48 hrs by HPLC analysis; type: physicochemical; conditions: read-out: Drug degradation
[13] = Drug degradation assessed as autoxidation at 50 uM at 37 degC after 2 to 48 hrs by UV-visible spectrophotometric analysis in presence of wild type Amyloid beta (1 to 42) (unknown origin); type: physicochemical
[14] = molecular target: Amyloid-beta precursor protein (Homo sapiens) (UniProt P05067); conditions: 500 uM
Description: Inhibition of elongation phase of HFIP-treated 15N-labelled wild type Amyloid beta (1 to 42) (unknown origin) at 500 uM by Thioflavin-T fluorescence assay in presence of fibril seed

[15] = Drug degradation assessed as autoxidation at 500 uM at 4 degC after 1 hr by UV-visible spectrophotometric analysis in presence of wild type Amyloid beta (1 to 42) (unknown origin) relative to morin and datiscetin; type: physicochemical; conditions: read-out: Drug degradation
[16] = Drug metabolism assessed as 2,4,6-trihydroxybenzaldehyde formation after 4 hrs by LC/Q Tof-MS/MS analysis; type: physicochemical

Sequence of Amyloid-beta precursor protein (Homo sapiens) (P05067 whole entry): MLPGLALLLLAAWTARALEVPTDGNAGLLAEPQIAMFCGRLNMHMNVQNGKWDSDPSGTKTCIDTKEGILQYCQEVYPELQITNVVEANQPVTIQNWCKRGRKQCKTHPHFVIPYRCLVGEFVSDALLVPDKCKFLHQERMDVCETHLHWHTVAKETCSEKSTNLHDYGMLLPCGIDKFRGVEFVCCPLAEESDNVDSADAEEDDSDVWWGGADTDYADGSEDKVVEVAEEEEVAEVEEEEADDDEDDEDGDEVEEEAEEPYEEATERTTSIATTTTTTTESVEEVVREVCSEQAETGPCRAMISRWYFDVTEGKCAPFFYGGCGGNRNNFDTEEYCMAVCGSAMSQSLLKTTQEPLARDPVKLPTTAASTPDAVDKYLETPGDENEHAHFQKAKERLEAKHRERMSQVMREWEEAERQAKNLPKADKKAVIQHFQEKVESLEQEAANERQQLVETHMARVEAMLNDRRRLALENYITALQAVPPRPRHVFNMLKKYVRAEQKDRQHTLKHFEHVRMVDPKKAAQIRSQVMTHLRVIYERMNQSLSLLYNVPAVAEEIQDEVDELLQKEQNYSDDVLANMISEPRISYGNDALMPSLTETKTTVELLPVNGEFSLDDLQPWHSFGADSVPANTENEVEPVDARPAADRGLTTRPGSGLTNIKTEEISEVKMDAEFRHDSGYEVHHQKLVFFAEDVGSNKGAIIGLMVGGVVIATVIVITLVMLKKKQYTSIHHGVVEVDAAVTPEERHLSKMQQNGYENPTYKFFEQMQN

O=c1c(OOc2c(-c3ccc(O)cc3)oc3cc(O)cc(O)c3c2=O)c(-c2ccc(O)cc2)oc2cc(O)cc(O)c12
TIME [1]: 3 h | Drug metabolism [2]: metabolite_detected | inhibition [3]: Active

O=C1C(=O)C(O)(c2ccc(O)cc2)Oc2cc(O)cc(O)c21 (stereo not drawn)
TIME [1]: 3 h | Drug metabolism [2]: metabolite_detected | inhibition [3]: Active

O=C(O)C(=O)c1c(O)cc(O)cc1O
TIME [1]: 3 h | Drug metabolism [2]: metabolite_detected | inhibition [3]: Active

O=C(O)C(=O)c1ccc(O)cc1
TIME [1]: 3 h | Drug metabolism [2]: metabolite_detected | inhibition [3]: Active

O=c1c(O)c(-c2ccc(O)cc2O)oc2cc(O)cc(O)c12 [MORIN]
inhibition [4]: Active | TIME [1]: 10 h | remaining at 48 h [5]: > 80% | Stability [6]: Stable | inhibition [7]: Active | inhibition [8]: Active | Stability [9]: Stable | inhibition [10]: Active

O=C(O)c1c(O)cc(O)cc1O
TIME [1]: 3 h | Drug metabolism [2]: metabolite_detected | inhibition [3]: Active

O=c1c(O)c(-c2ccccc2O)oc2cc(O)cc(O)c12 [DATISCETIN]
inhibition [4]: Active | TIME [1]: 6 h | remaining at 48 h [5]: > 80% | Stability [6]: Stable | inhibition [7]: Active | inhibition [8]: Active | Stability [9]: Stable | inhibition [11]: Active | inhibition [10]: Active

O=C(O)c1ccc(O)cc1 [PARABEN]
TIME [1]: 3 h | Drug metabolism [2]: metabolite_detected | inhibition [3]: Active

O=c1c(O)c(-c2ccc(O)cc2)oc2cc(O)cc(O)c12 [KAEMPFEROL]
inhibition [4]: Active | TIME [1]: 3 h | Stability [6]: Stable | inhibition [8]: Active | degraded at 48 h [12]: > 80% | Stability [13]: Unstable | inhibition [14]: Active | degraded at 1 h, 500 µM [15]: 70% | Drug metabolism [16]: metabolite_detected

O=C1Oc2cc(O)cc(O)c2C1=O
TIME [1]: 3 h | Drug metabolism [2]: metabolite_detected | inhibition [3]: Active

O=c1cc(-c2ccc(O)cc2)oc2cc(O)cc(O)c12 [APIGENIN]
TIME [1]: 3 h | Drug metabolism [2]: metabolite_detected | inhibition [3]: Active

O=Cc1c(O)cc(O)cc1O [PHLOROGLUCINALDEHYDE]
TIME [1]: 3 h | Drug metabolism [2]: metabolite_detected | inhibition [3]: Active
